The nature of experiment [1]: Topical eye drop composition (Table 3): intraocular pressure. The class given is in vivo.
Experiment [2] in a line: Topical eye drop composition (Table 3): allergic symptoms, dry eye, hyperemia, irritation.
The test system of the next experiment is myopia. Put plainly: Topical eye drop composition (Table 3): myopia progression or onset. Particulars: drop 2 times per day, human subject.

SMILES strings stand for the structures.

With `CN1C2CCC1CC(NC(=O)[C@H](CN)c1ccc(CO)cc1)C2` (stereo partly drawn) [Compound E20S, (S)-3-amino-2-(4-(hydroxymethyl)phenyl)-N-((1R,3-endo,5S)-8-methyl-8-azabicyclo[3.2.]octan-3-yl)propanamide ditosylate], the intraocular pressure result in experiment [1] is reported as “substantially decreases”. In addition, the allergic symptoms entry in experiment [2] (in vivo) is “substantially decreases”.

`CN1C2CCC1CC(NC(=O)C(CO)c1ccccc1)C2` (centres unmarked) [Compound E23]: the “rate of myopia progression” value in the experiment with myopia is on record as “substantially decreases”.

Regarding `CN1C2CCC1CC(OC(=O)C(C)(CO)c1ccccc1)C2` (centres unmarked) [Compound E22R], in experiment [2] (drop as needed), the “hyperemia, redness and ocular irritation” value was “substantially decreases”.

Regarding `CN1C2CCC1CC(OC(=O)C(CO)c1cccc(Cl)c1)C2` (centres unmarked) [Compound E21], the intraocular pressure result in experiment [1] is “substantially decreases”.

(Values after patent US11117869B2, “Compounds, compositions and methods for treatment of myopia” (Aerie Pharmaceuticals, Inc., priority 2019, dated 2021).)
